For 13 molecules, TGI and GI50 results are on record in PubChem BioAssay (NCI).

Some test systems named below: 786-0 renal; HCT-15 colon; IGROV1 ovarian; NCI-H226 lung; RPMI-8226 leukemia; SW-620 colon; UO-31 renal; RXF 393 renal; LOX IMVI melanoma.
Common to all, as to assay: inhibition of tumour cell growth, NCI panel, 48 h

SMILES strings stand for the structures. Values joined by “and” are separate entries in the source; they are usually repeats but may differ in a detail not shown here. Identical values can stand only once.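 These data come from cells grown in 96-well plates and exposed to compound for 48 hours at five concentrations. Abbreviation: GI50, concentration required for 50% inhibition of growth. TGI is the concentration that stops growth completely.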

Take `COC(=O)C1CCC(=NC2c3ccccc3-c3ccccc32)N1` (configuration not stated): the TGI with 786-0 renal, with HCT-15 colon, in the experiment on IGROV1 ovarian, in the experiment with NCI-H226 lung, in the experiment with RPMI-8226 leukemia and with SW-620 colon was over 100 µM each time. Also, the TGI in the experiment on UO-31 renal is over 100 µM.

With `COC(=O)C(=O)C(C(=O)C(=O)Nc1ccccc1C(N)=O)c1nc2ccc(C(=O)c3ccccc3)cc2[nH]c1=O` (configuration not stated), the TGI in the experiment with 786-0 renal, in the experiment on HCT-15 colon, in the experiment with IGROV1 ovarian, in the experiment with NCI-H226 lung, in the experiment with RPMI-8226 leukemia and with RXF 393 renal was over 100 µM each time. The TGI with SW-620 colon and in the experiment with UO-31 renal was over 100 µM each time.

Regarding `Clc1ccccc1C1=NN(c2ccccc2)C2c3cc(Br)ccc3OCC12` (configuration not stated), the TGI in the experiment with 786-0 renal, with IGROV1 ovarian, with RPMI-8226 leukemia, in the experiment on RXF 393 renal, in the experiment with SW-620 colon and with UO-31 renal was over 100 µM each time.

For `O=C1c2ccccc2C(=O)c2c1ccc1c3ccccc3n(Cc3ccccc3)c21`, the TGI in the experiment on 786-0 renal, with HCT-15 colon, with IGROV1 ovarian, in the experiment with LOX IMVI melanoma, with NCI-H226 lung and in the experiment on RPMI-8226 leukemia was over 100 µM throughout. The TGI in the experiment on SW-620 colon and in the experiment with UO-31 renal was over 100 µM throughout.

As to `O=C1/C(=C/c2ccccc2)CN(C(=O)OCC(Cl)(Cl)Cl)C/C1=C\c1ccccc1`, the TGI came to 5.46 µM in the experiment on 786-0 renal; 4.32 µM with HCT-15 colon; 15.4 µM in the experiment with IGROV1 ovarian; 2.06 µM with LOX IMVI melanoma; 0.649 µM with RPMI-8226 leukemia; 3.87 µM in the experiment on RXF 393 renal. Further, the values for the TGI in the experiment with SW-620 colon and with UO-31 renal were 2.3 µM and 12.1 µM, respectively.

As for `CCOC(=N)CC(=O)NC(C)c1ccccc1` (configuration not stated), the TGI in the experiment with 786-0 renal, in the experiment with HCT-15 colon, in the experiment on IGROV1 ovarian, in the experiment on LOX IMVI melanoma, in the experiment on NCI-H226 lung and in the experiment on RXF 393 renal was over 100 µM throughout. Moreover, the TGI in the experiment on SW-620 colon and in the experiment on UO-31 renal was over 100 µM throughout.

With `O=C1/C(=C/c2ccccc2)CN(C(=O)Oc2ccc([N+](=O)[O-])cc2)C/C1=C\c1ccccc1`, the GI50 in the experiment on 786-0 renal is 1.74 µM; in the experiment on HCT-15 colon, 2.74 µM; with LOX IMVI melanoma, 1.57 µM; with RPMI-8226 leukemia, 0.0844 µM; in the experiment on RXF 393 renal, 1.59 µM; in the experiment on SW-620 colon, 1.27 µM. Further, the TGI was 3.55 µM in the experiment on 786-0 renal; 5.63 µM in the experiment with HCT-15 colon; 1.26 µM and 3.36 µM in the experiment on LOX IMVI melanoma; 0.428 µM and 0.424 µM with RPMI-8226 leukemia; 4.51 µM with RXF 393 renal; 2.47 µM in the experiment with SW-620 colon.

On to `CCOC(=O)NNC(=O)NC12CC3CC(CC(C3)C1)C2`, for which the TGI with 786-0 renal, with HCT-15 colon, in the experiment with IGROV1 ovarian, with LOX IMVI melanoma, in the experiment with NCI-H226 lung and with RXF 393 renal was over 100 µM in each case. Moreover, the TGI in the experiment on SW-620 colon and in the experiment on UO-31 renal was over 100 µM in each case.

For the molecule `Cc1cccc(N2C(=O)/C(=C/c3ccc(N(CCC#N)CCC#N)cc3C)N=C2c2cc([N+](=O)[O-])ccc2Cl)c1`, the TGI with 786-0 renal, with HCT-15 colon, in the experiment on IGROV1 ovarian, in the experiment with NCI-H226 lung, in the experiment on RPMI-8226 leukemia and with SW-620 colon was over 100 µM in each case. In the experiment with UO-31 renal, this molecule registered a TGI of over 100 µM.

On to `Cc1ns/c(=N\C(=S)N(C)C)n1C`, for which the TGI with 786-0 renal, in the experiment with HCT-15 colon, in the experiment on IGROV1 ovarian, in the experiment with NCI-H226 lung, with RPMI-8226 leukemia and with RXF 393 renal was over 100 µM throughout. In addition, the TGI in the experiment on SW-620 colon and in the experiment with UO-31 renal was over 100 µM throughout.

Regarding `CCN1CC2(C)CC[C@@H](OC)C34[C@@H]2[C@H](OC(C)=O)C2(OCO[C@@]25C[C@H](OC)C2C[C@]3(O)[C@@H]5[C@H]2O)[C@H]14`, the TGI in the experiment with 786-0 renal, in the experiment with LOX IMVI melanoma, with NCI-H226 lung, in the experiment with RXF 393 renal, in the experiment with SW-620 colon and in the experiment with UO-31 renal was over 100 µM in each case.

For `COc1ccccc1NC(=O)C(=O)C1C(=O)Nc2ccccc2S1=O` (configuration not stated), the TGI in the experiment on 786-0 renal, in the experiment on HCT-15 colon, with IGROV1 ovarian, in the experiment with LOX IMVI melanoma, in the experiment on NCI-H226 lung and in the experiment with RXF 393 renal was over 100 µM each time. Besides, the TGI in the experiment on SW-620 colon and with UO-31 renal was over 100 µM in each case.

For `COc1cc(CC(=O)c2ccc3c(c2)OCO3)cc(OC)c1OC`, the TGI with 786-0 renal, with HCT-15 colon, with IGROV1 ovarian, with NCI-H226 lung, with RPMI-8226 leukemia and in the experiment on RXF 393 renal was over 100 µM each time. Moreover, the TGI with SW-620 colon was 46.3 µM; in the experiment on UO-31 renal, over 100 µM.
